Test results: article doi:10.1101/2025.08.13.670122v1 (bioRxiv, 2025)
Like-named read-outs stand apart in the source and are kept apart here.

Assays:
endogenous AT1R = target: T1, endogenous AT1R (Rattus norvegicus, UniProt P25095); experiment: Rho BRET sensor in rat primary VSMC with endogenous AT1R; assay type: cell-based; conditions: for Emax Rho in VSMCs (% AngII): Rho sensor, for 12 and TRV027 response at 10 μM; for EC50: adenoviral Rho BRET sensor, 1 min 30 s stimulation, mean ± SEM of at least three to five independent experiments, read-out: EC50 Rho in VSMCs
T1 construct: expressing low levels of endogenous AT1R; endogenous in cells; host or cells: rat primary VSMC, passages 13-15
T1 sequence (P25095 1-359): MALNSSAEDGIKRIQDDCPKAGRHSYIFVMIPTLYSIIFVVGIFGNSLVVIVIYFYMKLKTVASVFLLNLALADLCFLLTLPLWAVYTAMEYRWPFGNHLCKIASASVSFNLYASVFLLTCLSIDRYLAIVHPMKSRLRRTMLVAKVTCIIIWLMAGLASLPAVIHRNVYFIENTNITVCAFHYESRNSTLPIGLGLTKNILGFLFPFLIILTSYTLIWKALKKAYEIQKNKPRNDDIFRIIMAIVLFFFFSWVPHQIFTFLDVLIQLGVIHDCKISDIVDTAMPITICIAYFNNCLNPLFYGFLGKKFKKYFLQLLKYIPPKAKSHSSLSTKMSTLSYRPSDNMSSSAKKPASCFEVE
Source text: We next assessed the analogs’ ability to engage Gαq by assessing either the PKC or Rho responses in rat primary vascular smooth muscle cell (VSMC) culture, expressing low levels of endogenous AT1R (between 25–50 fmol/mg) (Figure 4, Table 6).
The coding regions of the PKC-c1b sensor, PKN-RBD-RlucII, and rGFPcaax were PCR-amplified and subcloned into the KpnI/XhoI sites of the pENTR3C vector (Invitrogen), respectively. These were then transferred into the adenoviral expression vector pAd/CMV/V5-DEST (Invitrogen), via gateway cloning (pAD-CMV-PKC-c1b, pAD-CMV-PKN-RBD-RLucII, and pAD-CMV-rGFPcaax). Viruses containing the sensor codes were generated following a previously outlined process.[49] […] The following day, cells were transfected with 4 µg of PacI-digested pAd5-CMVsensors using Lipofectamine 2000 (Invitrogen). After 7–10 days post-transfection, mature virus particles were gleaned via the collection of cells and media, which then underwent multiple cycles of freezing and thawing, followed by centrifugation. The harvested virus was amplified by re-infection on 100-mm dishes of confluent HEK293A cells, and harvested 48-72 h later. Viral titers were determined by serial dilution of adenovirus stock and subsequent infection of HEK293A cells in 96-well plates. 36 h after infection, cells were stained using an anti-hexon antibody (ab8249; Abcam), and hexon-expressing cells were tallied via fluorescence microscopy. The virus was then stored at −80°C. After this, rat VSMCs (between the 13th to 15th passages) were seeded at a density of 20,000 cells in each well of white 96-well plates 24 h before transduction with the viral vector. The cells were then transduced with the PKC sensor-adenovirus (3 μL per well) or Rho sensor (1 μL each per well of PKN-RBD-RLucII-adnovirus and rGFP-caax adenovirus). After 24 h, the medium was replaced. 48 h post-viral transduction, the cells were thoroughly washed with Tyrode’s buffer. Finally, BRET assays were carried out as detailed below.
On the day of the experiment, each well was washed with 80 µL of Tyrode’s buffer (140 mM NaCl, 2.7 mM KCl, 1 mM CaCl2, 12 mM NaHCO3, 5.6 mM D-glucose, 0.5 mM MgCl2, 0.37 mM NaH2PO4, 25 mM Hepes (pH 7.4)). This was followed by incubation for 1 h in Tyrode’s buffer at room temperature. For the Gαq, β-arrestin-2, and PKC biosensors used in HEK293 cells, coelenterazine 400A (at a final concentration of 5 μM) was added 10 min before stimulation. Cells were then stimulated with increasing doses of the indicated ligand, and BRET signals were measured using a Tristar2 (Berthold) microplate reader 10 min later. For the PKC and Rho biosensors in VSMCs, and the Rho biosensor in ΔG12/13 cells, cells were similarly stimulated with ligands for 1 min, 1 min 30 s, and 3 min, respectively, before BRET measurement. […] BRET signals were then measured using a Synergy2 (BioTek) microplate reader. The applied filter set was 410/80 nm and 515/30 nm, designed to detect the light emissions of RlucII (Renilla luciferase) (donor) and rGFP (acceptor), respectively.

AT1R = target: T2, AT1R (Homo sapiens, UniProt P30556); experiment: 125I-AngII displacement binding on HEK293 cells expressing human AT1R; set-up: expressed in transfected cells; host or cells: HEK293 cells, transient; freeze-thaw broken cells; conditions: SEM; read-out: Ki (apparent affinity)
T2 sequence (P30556 1-359): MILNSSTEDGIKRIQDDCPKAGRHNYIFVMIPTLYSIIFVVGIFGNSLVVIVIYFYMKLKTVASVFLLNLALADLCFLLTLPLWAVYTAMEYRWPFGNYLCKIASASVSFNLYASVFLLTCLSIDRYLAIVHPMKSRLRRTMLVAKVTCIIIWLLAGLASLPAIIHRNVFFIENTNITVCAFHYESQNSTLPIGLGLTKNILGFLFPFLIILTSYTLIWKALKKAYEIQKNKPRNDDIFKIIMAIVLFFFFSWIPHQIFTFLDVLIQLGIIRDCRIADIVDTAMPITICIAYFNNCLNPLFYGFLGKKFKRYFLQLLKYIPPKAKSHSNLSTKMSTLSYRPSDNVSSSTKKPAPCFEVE
Protocol: HEK293 cells, transiently expressing the human AT1R (3 million cells transfected with 4 μg of AT1R plasmid), were washed once with PBS and submitted to one freeze-thaw cycle. […] Binding assays were carried out in 96-well plates. […] The incubation mixtures were filtered through binding plates (MultiScreen HTS, Merck Millipore, Cork, Ireland) and preincubated with the washing buffer for 1 h at 4°C to remove unbound ligands. The filtered membranes were washed thrice with 200 µL cold binding buffer (4°C). The filters with membranes were retrieved with punch tips (Filter Plates Punch Tips, Merck Millipore, Cork, Ireland). […] The dissociation constant (Ki value) was determined from the IC50 using the Cheng-Prusoff equation and presented as a mean ± SEM of three independent experiments, each conducted in duplicate. VSMC cells were seeded at 80,000 cells per well in poly-ornithine-coated 24-wells. […] The next day, cells were washed thrice with ice-cold PBS, solubilized in 0.5 mL of 0.2 M NaOH/0.05% SDS, and bound radioactivity was counted using a PerkinElmer Wizard 1470 automatic γ-counter. Protein quantities were evaluated using a Bradford assay.

Emax Rho in VSMCs (% AngII) (endogenous AT1R)	EC50 (endogenous AT1R; SEM)	Ki (AT1R)	EC50 (endogenous AT1R)	SMILES
92 % AngII	39.1 ± 11 nM	0.23 ± 0.18 nM	–	CC[C@H](C)[C@H](NC(=O)[C@H](Cc1ccc(O)cc1)NC(=O)[C@@H](NC(=O)[C@H](CCCNC(=N)N)NC(=O)[C@@H](N)CC(=O)O)C(C)C)C(=O)N[C@@H](Cc1c[nH]cn1)C(=O)N1CCC[C@H]1C(=O)N[C@@H](Cc1ccc(OC)cc1)C(=O)O [compound 11]
12 % AngII	–	1.4 ± 0.2 nM	> 10000 nM	CC[C@H](C)[C@H](NC(=O)[C@H](Cc1ccc(O)cc1)NC(=O)[C@@H](NC(=O)[C@H](CCCNC(=N)N)NC(=O)[C@@H](N)CC(=O)O)C(C)C)C(=O)N[C@@H](Cc1c[nH]cn1)C(=O)N1CCC[C@H]1C(=O)N[C@@H](Cc1ccc(OCc2ccccc2)cc1)C(=O)O [compound 12]
